How the values were obtained:
Assay type in all cases: biochemical
KDR = target: T1, KDR (Homo sapiens, UniProt P35968); assay: KDR kinase HTRF assay; conditions: 0.3 mM ATP, read-out: IC50 (μM) - Enzyme Inhibition Assays KDR
T1 construct: EEE-tag
Protocol: (§1) To determine inhibition of KDR, FGFR, EGFR, and PDGFR activity, kinase assays were conducted using an HTRF (Homogeneous Time Resolved Fluorescence) assay. This assay is described in A. J. Kolb et. al., Drug Discovery Today, 1998, 3(7), p 333.
Prior to kinase reaction, recombinant EEE-tagged KDR was activated in the presence of activation buffer (50 mM HEPES, pH 7.4, 1 mM DTT, 10% glycerol, 150 mM NaCl, 0.1 mM EDTA, 26 mM MgCl2, and 4 mM ATP). The enzyme was incubated at 4° C. for 1 hour.
(§2) Kinase activity assays were performed in 96-well polypropylene plates (Falcon) with a total volume of 90 μL in each well. Each well contained 1 μM KDR substrate (Biotin-EEEEYFELVAKKKK), 1 nM activated KDR, and a test compound with one of 8 assay concentrations ranging from 100 μM to […] (1:5 serial dilution). The kinase activity assay was done in the presence of 100 mM HEPES, pH 7.4, 1 mM DTT, 0.1 mM Na2VO4, 25 mM MgCl2, 50 mM NaCl (from KDR stock solution), 1% DMSO (from compound), 0.3 mM ATP (at Km concentration) and 0.02% BSA. The reaction was incubated at 37° C. for 30 minutes. To stop the KDR reaction, 72 μL of reaction mixture was transferred into a STOP plate containing 18 μL of revelation buffer (20 mM EDTA, 50 mM HEPES, pH 7.4, 0.02% BSA, 10 nM Eu-labelled anti-pY antibody (final conc. 2 nM), and 100 nM streptavidin (final conc. 20 nM)). After mixing, 35 μL of solution was transferred into duplicate wells of a 384-well black plate (Costar), and read at 615/665 nm on a Wallac Victor 5 reader.
(§3) Compound IC50 values were determined from duplicate sets of data, and calculated by using Excel and fitting data to equation Y=[(a−b)/{1+(X/c)^d]+b, where a and b are enzyme activity in the presence of no test inhibitor compound and an infinite amount of inhibitor test compound, respectively, c is the IC50 and d is the hill constant of the compound response. The IC50 value is the concentration of test compound that reduces by 50% the enzyme activity under the test conditions described.

FGFR = target: T2, FGFR; assay: FGFR kinase HTRF assay; conditions: 10 μM ATP, read-out: IC50 (μM) - Enzyme Inhibition Assays FGFR
T2 construct: fused on or other part: GST tag
Protocol: as §1, §2
FGFR, EGFR, and PDGFR activity assays were carried out as described above for the KDR activity assay with the following differences. GST-tagged FGFR enzyme was activated at room temperature for 1 hour in the following activation buffer: 100 mM HEPES, pH 7.4, 50 mM NaCl, 20 mM MgCl2, and 4 mM ATP. The kinase activity assay was performed with 1 μM substrate (Biotin-EEEEYFELV), 1.5 nM activated FGFR, and test compound in the presence of 100 mM HEPES, 1 mM DTT, 0.4 mM MgCl2, 0.4 mM MnCl2, 50 mM NaCl, 1% DMSO, 10 μM ATP (Km=8.5 μM for FGFR), 0.1 mM Na2VO4, and 0.02% BSA, in a total volume of 90 μL. The rest of the assay was performed in the same manner as KDR assay.
as §3

PDGFR = PDGFR kinase HTRF assay; conditions: 2.3 μM ATP, read-out: IC50 (μM) - Enzyme Inhibition Assays PDGFR
Protocol: as §1, §2
The PDGFR kinase activity assay was performed with 1 μM substrate (Biotin-EEEEYFELV), 1.0 nM PDGFR, test compounds, 100 mM HEPES, pH 7.4, 1 mM DTT, 5 mM MgCl2, 2 mM MnCl2, 1% DMSO, 2.3 μM ATP (Km for PDGFR), 0.1 mM Na2VO4, and 0.02% BSA. The rest of the assay was performed in the same manner as the KDR assay.
as §3

Measured: IC50

T1 sequence (P35968 20-1356, species assumed): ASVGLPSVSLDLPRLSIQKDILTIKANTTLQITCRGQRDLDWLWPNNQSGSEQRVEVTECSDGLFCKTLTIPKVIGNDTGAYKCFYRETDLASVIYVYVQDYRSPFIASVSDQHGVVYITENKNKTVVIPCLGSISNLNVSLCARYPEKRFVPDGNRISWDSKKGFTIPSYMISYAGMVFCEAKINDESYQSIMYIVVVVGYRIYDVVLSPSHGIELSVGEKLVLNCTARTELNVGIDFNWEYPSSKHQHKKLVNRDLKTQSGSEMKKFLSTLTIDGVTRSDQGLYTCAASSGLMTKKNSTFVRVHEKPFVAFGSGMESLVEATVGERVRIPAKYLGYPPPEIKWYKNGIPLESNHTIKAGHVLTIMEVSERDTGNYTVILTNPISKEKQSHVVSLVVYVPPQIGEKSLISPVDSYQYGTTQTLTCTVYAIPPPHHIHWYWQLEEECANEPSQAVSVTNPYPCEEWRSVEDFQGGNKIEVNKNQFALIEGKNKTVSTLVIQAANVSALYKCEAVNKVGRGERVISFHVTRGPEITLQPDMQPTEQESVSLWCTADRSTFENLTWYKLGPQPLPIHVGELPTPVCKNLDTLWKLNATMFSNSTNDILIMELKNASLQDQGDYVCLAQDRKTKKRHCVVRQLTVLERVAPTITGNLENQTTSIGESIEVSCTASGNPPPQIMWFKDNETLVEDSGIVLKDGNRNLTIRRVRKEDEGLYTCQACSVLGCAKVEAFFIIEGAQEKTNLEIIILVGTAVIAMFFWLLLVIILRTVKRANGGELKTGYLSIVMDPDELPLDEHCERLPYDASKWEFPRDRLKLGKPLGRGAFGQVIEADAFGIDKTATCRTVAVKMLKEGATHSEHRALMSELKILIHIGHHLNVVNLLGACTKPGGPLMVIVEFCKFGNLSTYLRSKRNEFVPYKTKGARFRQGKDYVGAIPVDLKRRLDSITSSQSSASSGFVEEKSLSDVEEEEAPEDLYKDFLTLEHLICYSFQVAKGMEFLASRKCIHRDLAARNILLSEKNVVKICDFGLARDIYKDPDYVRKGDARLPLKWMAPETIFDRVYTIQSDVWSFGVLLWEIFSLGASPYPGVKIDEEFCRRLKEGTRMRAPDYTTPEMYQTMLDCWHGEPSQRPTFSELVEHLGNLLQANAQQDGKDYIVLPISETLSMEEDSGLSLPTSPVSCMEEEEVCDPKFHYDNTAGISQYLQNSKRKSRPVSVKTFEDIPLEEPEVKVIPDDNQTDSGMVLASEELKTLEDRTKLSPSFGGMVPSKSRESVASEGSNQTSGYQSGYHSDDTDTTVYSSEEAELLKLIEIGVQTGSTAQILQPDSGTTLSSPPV

COc1ccc(N2C(=O)N(c3ccccc3)c3nc(Nc4ccccc4)ncc3C2C)cc1 (racemic) [Example 1g, (±)-3-(4-Methoxy-phenyl)-4-methyl-1-phenyl-7-phenylamino-3,4-dihydro-1H-pyrimido[4,5-d]pyrimidin-2-one]
< 10 µM: all assays above

COc1ccc(N2C(=O)N(c3ccc(OC)cc3)C(C)c3cnc(Nc4ccccc4)nc32)cc1 (racemic) [Example 4b, (±)-1,3-Bis-(4-methoxy-phenyl)-4-methyl-7-phenylamino-3,4-dihydro-1H-pyrimido[4,5-d]pyrimidin-2-one]
< 10 µM: all assays above

COc1ccc(N2C(=O)N(c3cccc(C#N)c3)c3nc(Nc4ccccc4)ncc3C2C)cc1 (racemic) [Example 5b, (±)-3-[3-(4-Methoxy-phenyl)-4-methyl-2-oxo-7-phenylamino-3,4-dihydro-2H-pyrimido[4,5-d]pyrimidin-1-yl]-benzonitrile]
< 10 µM: all assays above

COc1ccc(N2C(=O)N(c3cccc(C(N)=O)c3)c3nc(Nc4ccccc4)ncc3C2C)cc1 (racemic) [Example 6, (±)-3-[3-(4-Methoxy-phenyl)-4-methyl-2-oxo-7-phenylamino-3,4-dihydro-2H-pyrimido[4,5-d]pyrimidin-1-yl]-benzamide]
< 10 µM: all assays above

COc1ccc(N2C(=O)N(c3ccccc3)c3nc(Nc4ccccc4)ncc3C2C)c(F)c1 (racemic) [Example 8d, (±)-3-(2-Fluoro-4-methoxy-phenyl)-4-methyl-1-phenyl-7-phenylamino-3,4-dihydro-1H-pyrimido[4,5-d]pyrimidin-2-one]
< 10 µM: all assays above

COc1ccc(N2C(=O)N(c3cccc(C#N)c3)c3nc(Nc4ccccc4)ncc3C2C)c(F)c1 (racemic) [Example 9b, (±)-3-[3-(2-Fluoro-4-methoxy-phenyl)-4-methyl-2-oxo-7-phenylamino-3,4-dihydro-2H-pyrimido[4,5-d]pyrimidin-1-yl]-benzonitrile]
< 10 µM: all assays above

COc1ccc(N2C(=O)N(c3cccc(C(N)=O)c3)c3nc(Nc4ccccc4)ncc3C2C)c(F)c1 (racemic) [Example 10, (±)-3-[3-(2-Fluoro-4-methoxy-phenyl)-4-methyl-2-oxo-7-phenylamino-3,4-dihydro-2H-pyrimido[4,5-d]pyrimidin-1-yl]-benzamide]
< 10 µM: all assays above

COc1ccc(N2C(=O)N(c3ccccc3)c3nc(Nc4ccccc4)ncc3[C@@H]2C)cc1 (single isomer, unassigned) [Example 3]
< 10 µM: all assays above

COc1ccc(N2C(=O)N([C@H](C)CO)c3nc(Nc4ccccc4)ncc3[C@@H]2C)cc1 [Example 15b, 1-(2-Hydroxy-1-(R)-methyl-ethyl)-3-(4-methoxy-phenyl)-4-(S)-methyl-7-phenylamino-3,4-dihydro-1H-pyrimido[4,5-d]pyrimidin-2-one]
< 10 µM: all assays above

Reference: patent US7112676B2, “Pyrimido compounds having antiproliferative activity” (Hoffmann-La Roche Inc., priority 2002, dated 2006)
